Columns and labels:
Cathepsin D = Cathepsin D (Homo sapiens, UniProt P07339); experiment: Fluorescence Resonance Energy Transfer (FRET)-Based Assay; settings: pH 5
Procedure: (§1) The assay was performed with plasmepsin-II/cathepsin D (1.2 nM) and substrate (malaria FRET-1; 1.0 μM) in 0.1 M sodium acetate buffer pH 5, containing 10% glycerol and 0.01% Tween 20. The hydrazide and hydrazine compounds dissolved in DMSO were added in the reaction mixture before the addition of substrate. The assays were performed with 5% final concentration of DMSO. The enzyme inhibition experiments were performed (in triplicates) in 96-well plate format and readings were obtained on a Perkin Elmer LS55 fluorescence spectrometer, Waltham, Massachusetts, with an excitation and emission wavelengths of 336 and 490 nm respectively.

Plasmepsin II = Plasmepsin II (Plasmodium falciparum (isolate HB3), UniProt P46925); experiment: as above; settings: pH 5
Procedure: as §1

Chain of Cathepsin D (P07339 65-162 limits assumed): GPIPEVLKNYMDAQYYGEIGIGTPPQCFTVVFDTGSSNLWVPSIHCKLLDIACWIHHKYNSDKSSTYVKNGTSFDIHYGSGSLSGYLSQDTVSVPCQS
Chain of Cathepsin D (P07339 169-412 limits assumed): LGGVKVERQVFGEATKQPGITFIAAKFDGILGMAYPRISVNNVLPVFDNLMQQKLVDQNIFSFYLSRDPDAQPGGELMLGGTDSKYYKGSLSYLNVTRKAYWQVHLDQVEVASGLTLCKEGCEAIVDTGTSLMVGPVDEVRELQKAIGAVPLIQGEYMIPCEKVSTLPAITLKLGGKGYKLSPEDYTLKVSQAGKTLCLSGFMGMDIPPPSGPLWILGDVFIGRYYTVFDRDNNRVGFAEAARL
Chain of Plasmepsin II (P46925 whole entry): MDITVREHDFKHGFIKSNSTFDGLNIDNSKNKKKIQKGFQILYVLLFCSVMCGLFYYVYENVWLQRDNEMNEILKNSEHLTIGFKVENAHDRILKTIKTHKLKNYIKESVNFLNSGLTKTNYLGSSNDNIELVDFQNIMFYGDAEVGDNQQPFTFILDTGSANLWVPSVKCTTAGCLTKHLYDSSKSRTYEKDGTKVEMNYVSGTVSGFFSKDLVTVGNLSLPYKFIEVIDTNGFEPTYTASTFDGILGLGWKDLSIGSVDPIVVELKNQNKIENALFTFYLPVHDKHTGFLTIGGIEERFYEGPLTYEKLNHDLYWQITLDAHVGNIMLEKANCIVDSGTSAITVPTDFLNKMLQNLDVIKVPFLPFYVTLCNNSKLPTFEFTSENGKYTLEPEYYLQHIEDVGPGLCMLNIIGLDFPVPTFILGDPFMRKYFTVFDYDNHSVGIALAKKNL

SMILES | IC50 (Cathepsin D) [nM] | IC50 (Plasmepsin II) [nM]
CCCC(=O)NN [Butanohydrazide] | 1400 | 1250
COc1ccccc1C(=O)NN | 1500 | 1650
NNC(=O)c1ccccc1[N+](=O)[O-] [2-Nitrobenzohydrazide] | 1300 | 1000
c1cc(NNc2ccncc2)ccn1 [1,2-Dipyridinylhydrazine] | 2500 | 1450
c1ccc(NNc2ccccc2)cc1 [1,2-Diphenylhydrazine] | 2400 | 1050

Source: BindingDB's records for doi:10.3109/14756360903508430 (University of Karachi, 2010)
